Patent US20240041042A1, “1-(PYRIDYL)-5-AZINYLPYRAZOLE DERIVATIVES, AND THEIR USE FOR CONTROL OF UNDESIRED PLANT GROWTH” (Bayer Aktiengesellschaft, priority 2020, published 2024)
Read-outs that look alike come from different tables or passages of the source.

What was measured:
Type in all cases: in vivo
Viola tricolor (VIOTR) [1] = test: Post-emergence herbicidal action against VIOTR
In short: (§1)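 Rates were 320 g/ha or below, applied as aqueous WP/EC spray with 0.5% additive (600 l/ha) onto one-leaf-stage plants. About 3 weeks later in the greenhouse, damage was scored visually against untreated plants on a 0–100% scale, where 100% means plants died.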

Zea mays (ZEAMX) [2] = conditions: pre-emergence, 80 g/ha, crop plant compatibility, in comparison to untreated controls
In short: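 Crop injury rated visually in percent against untreated plants roughly 3 weeks after treatment (0% no effect, 100% plants dead). Compounds, as WP or EC with 0.5% additive in 600 l/ha water, were applied to the covering soil right after sowing; greenhouse growth. Suffixes a, b, c denote different dosages.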

[3] = tested on: Digitaria sanguinalis (DIGSA); test: Pre-emergence herbicidal action against DIGSA
In short: (§2)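 Dosages of 320 g/ha or less; pre-emergence; WP or EC in aqueous spray, 0.5% additive, 600 l/ha; greenhouse; visual % effect after ~3 wk relative to control pots.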

Oryza sativa (ORYSA) = conditions: crop plant compatibility, effect in comparison to untreated controls
In short: (§3)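 Test crops were treated 2 to 3 weeks after sowing, once they reached one leaf, by spraying compound in water with 0.5% additive at 600 l/ha. Visual scoring compared them with untreated controls roughly 3 weeks on, and appendices a, b and c denote different doses.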

[4] = tested on: Triticum aestivum (TRZAS); conditions: crop plant compatibility, 80 g/ha, effect vs untreated controls
In short: as §3

Zea mays (ZEAMX) [5] = conditions: crop plant compatibility, 80 g/ha, effect vs untreated controls
In short: as §3

[6] = tested on: Verconica persica (VERPE); test: Post-emergence herbicidal action against VERPE
In short: as §1

[7] = tested on: Amaranthus retroflexus (AMARE); test: Post-emergence herbicidal action against AMARE
In short: as §1

[8] = tested on: Matricaria inodora (MATIN); test: Post-emergence herbicidal action against MATIN; conditions: dosage 320 g/ha
In short: as §1

[9] = tested on: Amaranthus retroflexus (AMARE); test: Pre-emergence herbicidal action against AMARE; conditions: visual scoring after about 3 weeks vs untreated controls
In short: as §2

Lolium rigidum (LOLRI) [10] = test: Pre-emergence herbicidal action against LOLRI
In short: as §2

Avena fatua (AVEFA) [11] = test: Pre-emergence herbicidal action against AVEFA; conditions: visual scoring after about 3 weeks vs untreated controls
In short: as §2

[12] = tested on: Echinochloa crus-galli (ECHCG); test: Post-emergence herbicidal action against ECHCG
In short: as §1

[13] = tested on: Pharbitis purpurea (PHBPU); test: Post-emergence herbicidal action against PHBPU
In short: as §1

[14] = tested on: Polygonum convolvulus (POLCO); test: Pre-emergence herbicidal action against POLCO; conditions: dosage 320 g/ha
In short: as §2

[15] = tested on: Matricaria inodora (MATIN); test: Pre-emergence herbicidal action against MATIN; conditions: dosage 320 g/ha
In short: as §2

[16] = tested on: Alopecurus myosuroides (ALOMY); test: Pre-emergence herbicidal action against ALOMY; conditions: scored visually after about 3 weeks, 100% = plants have died
In short: as §2

Lolium rigidum (LOLRI) [17] = test: Post-emergence herbicidal action against LOLRI
In short: as §1

Setaria viridis (SETVI) [18] = test: Pre-emergence herbicidal action against SETVI; conditions: dosage 320 g/ha
In short: as §2

[19] = tested on: Pharbitis purpurea (PHBPU); test: Pre-emergence herbicidal action against PHBPU; conditions: dosage 320 g/ha
In short: as §2

[20] = tested on: Verconica persica (VERPE); test: Pre-emergence herbicidal action against VERPE; conditions: dosage 320 g/ha
In short: as §2

[21] = tested on: Echinochloa crus-galli (ECHCG); test: Pre-emergence herbicidal action against ECHCG; conditions: dosage 320 g/ha
In short: as §2

[22] = tested on: Polygonum convolvulus (POLCO); test: Post-emergence herbicidal action against POLCO
In short: as §1

Setaria viridis (SETVI) [23] = test: Post-emergence herbicidal action against SETVI; conditions: dosage 320 g/ha
In short: as §1

[24] = tested on: Alopecurus myosuroides (ALOMY); test: Post-emergence herbicidal action against ALOMY; conditions: visual rating about 3 weeks after treatment vs untreated controls (100% = plants have died, 0% = like control plants)
In short: as §1

[25] = tested on: Digitaria sanguinalis (DIGSA); test: Post-emergence herbicidal action against DIGSA; conditions: visual rating about 3 weeks after treatment
In short: as §1

Avena fatua (AVEFA) [26] = test: Post-emergence herbicidal action against AVEFA; conditions: visual rating about 3 weeks after treatment
In short: as §1

Viola tricolor (VIOTR) [27] = test: Pre-emergence herbicidal action against VIOTR
In short: as §2

[28] = 320 g/ha, visual rating about 3 weeks after treatment
[29] = 80 g/ha, visual scoring after about 3 weeks vs untreated controls

Row | SMILES | Post-emergence action against VIOTR in % (Viola tricolor (VIOTR) [1]; 320 g/ha) [%] | Pre-emergence action against ZEAMX in % (Zea mays (ZEAMX) [2]) [%] | Pre-emergence action against DIGSA in % ([3]; dosage 320 g/ha) [%] | Post-emergence action against ORYSA in % (Oryza sativa (ORYSA); 80 g/ha) [%] | Post-emergence action against VERPE in % ([6]; 320 g/ha, VERPE) [%] | Post-emergence action against AMARE in % [7, 28] [%] | Post-emergence action against MATIN in % [8] [%] | Pre-emergence action against AMARE in % ([9]; 80 g/ha) [%] | Pre-emergence action against AMARE in % ([9]; 320 g/ha) [%] | Pre-emergence action against LOLRI in % (Lolium rigidum (LOLRI) [10]; dosage 320 g/ha) [%] | Pre-emergence action against AVEFA in % (Avena fatua (AVEFA) [11]; 320 g/ha) [%] | Post-emergence action against VIOTR in % (Viola tricolor (VIOTR) [1]; 80 g/ha) [%] | Post-emergence action against ECHCG in % ([12]; dosage 320 g/ha) [%] | Pre-emergence action against DIGSA in % [3, 29] [%] | Post-emergence action against PHBPU in % ([13]; dosage 320 g/ha) [%] | Pre-emergence action against POLCO in % [14] [%] | Pre-emergence action against MATIN in % [15] [%] | Pre-emergence action against ALOMY ([16]; 80 g/ha) [%] | Pre-emergence action against ALOMY ([16]; 320 g/ha) [%] | Post-emergence action against LOLRI in % (Lolium rigidum (LOLRI) [17]; dosage 320 g/ha) [%] | other results
1 | COC(=O)CCOC(=O)COc1nn(-c2ccccn2)c(-c2ccc(Cl)nc2)c1Cl [Example I-243] | 80 | 10 | 80 | 0 | 80 | 80 | 80 | 80 | 90 |  |  |  |  |  |  |  |  |  |  |  | Post-emergence action against ORYSA in % (Oryza sativa (ORYSA); 320 g/ha): 10%; Post-emergence action against TRZAS in % [4]: 20%; Post-emergence action against ZEAMX in % (Zea mays (ZEAMX) [5]): 0%
2 | COC(=O)CCOC(=O)COc1nn(-c2ccccn2)c(-c2ccc(F)nc2)c1Br [Example I-247] | 80 | 20 | 100 | 10 | 80 | 80 |  | 80 | 100 | 100 | 80 | 80 | 80 | 100 | 90 | 90 | 90 | 80 | 100 | 80 | Post-emergence action against ECHCG in % ([12]; dosage 80 g/ha): 80%; Post-emergence action against PHBPU in % ([13]; dosage 80 g/ha): 90%; Pre-emergence action against SETVI in % (Setaria viridis (SETVI) [18]): 100%; Pre-emergence action against PHBPU in % [19]: 80%; Pre-emergence action against VERPE in % [20]: 90%; Post-emergence action against VERPE in % ([6]; dosage 80 g/ha): 80%; Pre-emergence action against ECHCG in % [21]: 100%; Post-emergence action against POLCO in % ([22]; dosage 80 g/ha): 80%; Post-emergence action against POLCO in % ([22]; dosage 320 g/ha): 80%; Post-emergence action against SETVI in % (Setaria viridis (SETVI) [23]): 80%; Post-emergence action against AMARE in % ([7]; 80 g/ha, visual rating about 3 weeks after treatment vs untreated controls (100% = plants have died, 0% = like control plants)): 80%; Post-emergence action against ALOMY in % ([24]; 320 g/ha): 80%; Post-emergence action against DIGSA in % ([25]; 80 g/ha): 80%; Post-emergence action against DIGSA in % ([25]; 320 g/ha): 80%
3 | COC(=O)CCOC(=O)C(C)Oc1nn(-c2ccccn2)c(-c2ccc(F)nc2)c1C(F)(F)F (stereo not drawn) [Example I-293] | 80 | 20 | 100 | 0 |  | 80 | 80 |  | 100 | 100 | 90 | 80 | 80 | 80 | 80 | 80 | 80 | 90 | 100 | 80 | Pre-emergence action against LOLRI in % (Lolium rigidum (LOLRI) [10]; dosage 80 g/ha): 100%; Pre-emergence action against AVEFA in % (Avena fatua (AVEFA) [11]; 80 g/ha): 80%; Post-emergence action against AVEFA in % (Avena fatua (AVEFA) [26]; 80 g/ha): 80%; Post-emergence action against AVEFA in % (Avena fatua (AVEFA) [26]; 320 g/ha): 90%; Post-emergence action against LOLRI in % (Lolium rigidum (LOLRI) [17]; dosage 80 g/ha): 80%; Pre-emergence action against PHBPU in % [19]: 80%; Pre-emergence action against VIOTR in % (Viola tricolor (VIOTR) [27]; 320 g/ha, Viola tricolor): 100%; Pre-emergence action against VIOTR in % (Viola tricolor (VIOTR) [27]; dosage 80 g/ha): 80%; Pre-emergence action against ECHCG in % [21]: 90%; Post-emergence action against POLCO in % ([22]; dosage 80 g/ha): 80%; Post-emergence action against POLCO in % ([22]; dosage 320 g/ha): 80%; Post-emergence action against SETVI in % (Setaria viridis (SETVI) [23]): 80%; Post-emergence action against ALOMY in % ([24]; 80 g/ha): 90%; Post-emergence action against ALOMY in % ([24]; 320 g/ha): 90%; Post-emergence action against DIGSA in % ([25]; 320 g/ha): 80%
